According to patent publication US11234436B2, “Method for controlling non-crop pests” (BASF Agrochemical Products B.V., priority 2015, dated 2022):

Test system: German Cockroach (Blattella germanica)
Assay: Test 1: activity against German cockroach, treated glass vial contact, mortality
Format: in vivo
Conditions: alone, 1 h exposure in treated vial
Experimental: Test 1. Activity Against German Cockroach (Blattella germanica)
Glass vials were treated with 445 μl of varying concentrations of the technical grade active ingredient dissolved in acetone. Vials were turned on their sides and placed on an automated roller table. The vials were rolled (6 rpm) uncapped to allow an even coating of the treatment. Each treatment was replicated five times.
Prior to infestation, cockroaches were incapacitated using carbon dioxide (CO2). Approximately 6 insects were transferred with featherweight, broad tip forceps into treated vials, and held in an environmental chamber at 27° C. and 80% relative humidity for one hour. Following this exposure period, a small amount of CO2 was used to incapacitate the insects facilitating removal from treated vials. Insects were then transferred to 16 oz plastic holding containers provisioned with a small piece of dry cat food and a cotton wick moistened with water, and returned to the environmental chamber. Mortality was assessed at 1, 2, and 3 days after exposure (DAE).

For `CN(C(=O)c1ccccc1)c1cccc(C(=O)Nc2c(Br)cc(C(F)(C(F)(F)F)C(F)(F)F)cc2C(F)(F)F)c1F` [Compound i) of formula (I), broflanilide], the “Average Control %” value (Mixture 1.1, 9.2 ppm) was 10%, the “Average Control %” value (Test Mixture 1.2, 10 ppm) was 10% and the “Average Control %” value (Test Mixture 1.3, 9.5 ppm) was 26.7%. The “Average Control %” value (Test Mixture 1.4, 9.5 ppm) was 46.7%.
With `CN/C(=N/CC1CCOC1)N[N+](=O)[O-]` (centres unmarked) [Dinotefuran, dinotefuran] the “Average Control %” value (Mixture 1.1, 2.6 ppm) was 16.7% and the “Average Control %” value (Test Mixture 1.2, 4.1 ppm) was 30%.
In the case of `CC1(C)C(C=C(Cl)Cl)C1C(=O)OC(C#N)c1cccc(Oc2ccccc2)c1` (stereo not drawn) [Alphacypermethrin, alpha-cypermethrin], the “Average Control %” value (Test Mixture 1.4, 1.96 ppm) is reported as 0%.
With `CCOCn1c(-c2ccc(Cl)cc2)c(C#N)c(Br)c1C(F)(F)F` [Chlorfenapyr, chlorfenapyr] the “Average Control %” value (Test Mixture 1.3, 100 ppm) was 3.3%.
